Reference: US8278304B2, “Substituted 4-hydroxypyrimidine-5-carboxamides” (Merck Sharp & Dohme Corp., priority 2008, dated 2012)
Where a name gives a salt, the structure may show the parent alone.

Biological target: T1, PHD2 (Homo sapiens, UniProt Q9GZT9)
T1 construct: FLAG-tagged full length PHD2 expressed in and purified from baculovirus-infected Sf9 cells; FLAG; made in house; host or cells: baculovirus-infected Sf9 cells
Assay: PHD2 / HIF-1α peptide hydroxylation assay, time resolved fluorescence (VHL complex detection)
Assay type: biochemical
Conditions: FLAG-tagged full length PHD2; 0.2 μM 2-oxoglutarate, 0.5 μM HIF-1α peptide; read-out: PHD2 Activity (PHD2 binding activity expressed as IC50 (nM))
Method: To each well of a 96-well plate was added 1 μL of test compound in DMSO and 20 μl of assay buffer (50 mM Tris pH 7.4/0.01% Tween-20/0.1 mg/ml bovine serum albumin/10 μM ferrous sulfate/1 mM sodium ascorbate/20 μg/ml catalase) containing 0.15 μg/ml FLAG-tagged full length PHD2 expressed in and purified from baculovirus-infected Sf9 cells. After a 30 min preincubation at room temperature, the enzymatic reactions were initiated by the addition of 4 μL of substrates (final concentrations of 0.2 μM 2-oxoglutarate and 0.5 μM HIF-1α peptide biotinyl-[…]).

T1 sequence (Q9GZT9 whole entry): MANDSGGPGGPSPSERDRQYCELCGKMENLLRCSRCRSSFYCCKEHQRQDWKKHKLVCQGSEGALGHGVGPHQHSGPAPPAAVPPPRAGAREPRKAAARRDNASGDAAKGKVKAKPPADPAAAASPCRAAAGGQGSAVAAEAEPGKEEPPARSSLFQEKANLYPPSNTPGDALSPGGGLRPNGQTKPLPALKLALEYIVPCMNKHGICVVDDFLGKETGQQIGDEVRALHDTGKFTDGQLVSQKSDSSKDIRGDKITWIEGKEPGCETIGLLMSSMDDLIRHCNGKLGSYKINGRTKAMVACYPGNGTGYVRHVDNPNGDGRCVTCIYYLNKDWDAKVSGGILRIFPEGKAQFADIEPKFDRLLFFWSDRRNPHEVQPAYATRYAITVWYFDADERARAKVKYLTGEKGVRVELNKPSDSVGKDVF

| SMILES | IC50 |
| --- | --- |
| CC(C)(NC(=O)c1cnc(-n2cccn2)nc1O)c1ccc(Br)cc1 [Example 92, N-[1-(4-bromophenyl)-1-methylethyl]-4-hydroxy-2-(1H-pyrazol-1-yl)pyrimidine-5-carboxamide] | ≤ 10 nM |
| CC(NC(=O)c1cnc(-n2cccn2)nc1O)c1ccccn1 (stereo not shown) [Example 118, 4-hydroxy-2-(1H-pyrazol-1-yl)-N-[1-(pyridin-2-yl)ethyl]pyrimidine-5-carboxamide] | 10 to 100 nM |
| O=C(NCc1ccc(-c2cccc(F)c2)nc1)c1cnc(-n2cccn2)nc1O [Example 107, N-{[6-(3-fluorophenyl)pyridin-3-yl]methyl}-4-hydroxy-2-(1H-pyrazol-1-yl)pyrimidine-5-carboxamide trifluoroacetate (salt)] | ≤ 10 nM |
| O=C(NCc1ccc(-c2ccccc2Cl)cc1)c1cnc(-n2cccn2)nc1O [Example 62, N-[(2′-chlorobiphenyl-4-yl)methyl]-4-hydroxy-2-(1H-pyrazol-1-yl)pyrimidine-5-carboxamide] | ≤ 10 nM |
| COc1ccc(C(NC(=O)c2cnc(-c3cccnn3)nc2O)c2cccc(C#N)c2)cc1 (single isomer, unassigned) [Example 148, N-[(3-cyanophenyl)(4-methoxyphenyl)methyl]-4-hydroxy-2-(pyridazin-3-yl)pyrimidine-5-carboxamide] | ≤ 10 nM |
| O=C(NCc1ccc(C(F)(F)F)cc1)c1cnc(-c2ncccn2)nc1O [Example 23, 4-Hydroxy-N-[4-(trifluoromethyl)benzyl]-2,2′-bipyrimidine-5-carboxamide] | 100 to 1000 nM |
| C[C@@H](NC(=O)[C@H](NC(=O)c1cnc(-n2cccn2)nc1O)c1ccccc1)c1ccccc1 [Example 180, 4-Hydroxy-N-((1R)-2-oxo-1-phenyl-2-{[(1R)-1-phenylethyl]amino}ethyl)-2-(1H-pyrazol-1-yl)pyrimidine-5-carboxamide] | 10 to 100 nM |
| CCN(NC(=O)c1cnc(-n2cccn2)nc1O)c1ccccc1 [Example 76, N′-Ethyl-4-hydroxy-N′-phenyl-2-(1H-pyrazol-1-yl)pyrimidine-5-carbohydrazide trifluoroacetate (salt)] | 10 to 100 nM |
| COc1ccc(C(NC(=O)c2cnc(-c3cccnn3)nc2O)c2nc(C)cs2)cc1 (single isomer, unassigned) [Example 145, 4-hydroxy-N-[(4-methoxyphenyl)(4-methyl-1,3-thiazol-2-yl)methyl]-2-(pyridazin-3-yl)pyrimidine-5-carboxamide] | ≤ 10 nM |
| C[C@H](NC(=O)c1cnc(-c2cccnn2)nc1O)c1ccc2c(c1)OCCO2 [Example 140, N-[(1S)-1-(2,3-dihydro-1,4-benzodioxin-6-yl)ethyl]-4-hydroxy-2-(pyridazin-3-yl)pyrimidine-5-carboxamide] | ≤ 10 nM |
| COCc1ccc(C(NC(=O)c2cnc(-c3cccnn3)nc2O)c2ccc(COC)cc2)cc1 [Example 184, N-{bis[4-(methoxymethyl)phenyl]methyl}-4-hydroxy-2-pyridazin-3-ylpyrimidine-5-carboxamide] | ≤ 10 nM |
| C[C@H](NC(=O)c1cnc(-n2cccn2)nc1O)c1ccc(Br)cc1 [Example 91, N-[(1S)-1-(4-bromophenyl)ethyl]-4-hydroxy-2-(1H-pyrazol-1-yl)pyrimidine-5-carboxamide] | ≤ 10 nM |
| COc1ccc(C(NC(=O)c2cnc(-n3cccn3)nc2O)c2ccc(OC)nc2)cc1 (stereo not shown) [Example 167, 4-hydroxy-N-[(4-methoxyphenyl)(6-methoxypyridin-3-yl)methyl]-2-(1H-pyrazol-1-yl)pyrimidine-5-carboxamide trifluoroacetate (salt)] | ≤ 10 nM |
| O=C(NCc1ccc(-c2ccccc2)cc1)c1cnc(-c2cccnn2)nc1O [Example 28, N-(biphenyl-4-ylmethyl)-4-hydroxy-2-pyridazin-3-ylpyrimidine-5-carboxamide] | ≤ 10 nM |
| O=C(NC(Cc1ccccc1)c1ccccc1)c1cnc(-n2cccn2)nc1O (stereo not shown) [Example 67, N-(1,2-diphenylethyl)-4-hydroxy-2-(1H-pyrazol-1-yl)pyrimidine-5-carboxamide] | ≤ 10 nM |
| C[C@@H](NC(=O)c1cnc(-n2cccn2)nc1O)C1CCCCC1 [Example 84, N-[(1R)-1-cyclohexylethyl]-4-hydroxy-2-(1H-pyrazol-1-yl)pyrimidine-5-carboxamide] | 10 to 100 nM |
| COc1ccc([C@H](C)NC(=O)c2cnc(-n3cc(C)cn3)nc2O)cc1 [Example 134, 4-hydroxy-N-[(1S)-1-(4-methoxyphenyl)ethyl]-2-(4-methyl-1H-pyrazol-1-yl)pyrimidine-5-carboxamide] | ≤ 10 nM |
| O=C(NC(c1ccccc1)c1ccccc1)c1cnc(-c2ccc[nH]2)nc1O [Example 45, N-(diphenylmethyl)-4-hydroxy-2-(1H-pyrrol-2-yl)pyrimidine-5-carboxamide] | 100 to 1000 nM |
| O=C(c1cnc(-n2cccn2)nc1O)N1CCCCC1 [Example 81, 5-(Piperidin-1-ylcarbonyl)-2-(1H-pyrazol-1-yl)pyrimidin-4-ol] | 1000 to 10000 nM |
| CC(NC(=O)c1cnc(-c2ccccn2)nc1O)c1ccc(F)cc1 (stereo not shown) [Example 12, N-[1-(4-fluorophenyl)ethyl]-4-hydroxy-2-pyridin-2-ylpyrimidine-5-carboxamide] | 10 to 100 nM |

Now from value to molecule:

| IC50 | SMILES |
| --- | --- |
| ≤ 10 nM | O=C(NC(c1ccccc1)c1ccc(C(F)(F)F)nc1)c1cnc(-n2cccn2)nc1O (single isomer, unassigned) [Example 142, 4-hydroxy-N-{phenyl[6-(trifluoromethyl)pyridin-3-yl]methyl}-2-(1H-pyrazol-1-yl)pyrimidine-5-carboxamide] |
| 10 to 100 nM | CC(NC(=O)c1cnc(-n2cccn2)nc1O)[C@]12C[C@H]3C[C@H](C[C@H](C3)C1)C2 (stereo partly drawn) [Example 90, N-{(1R)-1-[(3S,5S,7S)-1-adamantyl]ethyl}-4-hydroxy-2-(1H-pyrazol-1-yl)pyrimidine-5-carboxamide] |
| ≤ 10 nM | CC(NC(=O)c1cnc(-n2cccn2)nc1O)c1ccncc1 (stereo not shown) [Example 86, 4-hydroxy-2-(1H-pyrazol-1-yl)-N-(1-pyridin-4-ylethyl)pyrimidine-5-carboxamide trifluoroacetate (salt)] |
| ≤ 10 nM | COc1ccc(C(NC(=O)c2cnc(-c3cccnn3)nc2O)c2ccc(F)cc2)c(OC)n1 (stereo not shown) [Example 177, N-[(2,6-dimethoxypyridin-3-yl)(4-fluorophenyl)methyl]-4-hydroxy-2-(pyridazin-3-yl)pyrimidine-5-carboxamide] |
| ≤ 10 nM | O=C(NCc1ccc2c(c1)CCO2)c1cnc(-n2cccn2)nc1O [Example 101, N-(2,3-dihydro-1-benzofuran-5-ylmethyl)-4-hydroxy-2-(1H-pyrazol-1-yl)pyrimidine-5-carboxamide] |
| 10 to 100 nM | O=C(N[C@H]1CCc2ccccc21)c1cnc(-n2cccn2)nc1O [Example 119, N-[(1S)-2,3-dihydro-1H-inden-1-yl]-4-hydroxy-2-(1H-pyrazol-1-yl)pyrimidine-5-carboxamide] |
| 10 to 100 nM | CC[C@H](NC(=O)c1cnc(-c2csc(C)n2)nc1O)c1ccccc1 [Example 35, 4-Hydroxy-2-(2-methyl-1,3-thiazol-4-yl)-N-[(1S)-1-phenylpropyl]pyrimidine-5-carboxamide] |
| ≤ 10 nM | O=C(NCc1ccc(-c2ccc(F)cc2)nc1)c1cnc(-n2cccn2)nc1O [Example 108, N-{[6-(4-fluorophenyl)pyridin-3-yl]methyl}-4-hydroxy-2-(1H-pyrazol-1-yl)pyrimidine-5-carboxamide] |
| 10 to 100 nM | O=C(NC1CCc2ccccc21)c1cnc(-n2cccn2)nc1O (stereo not shown) [Example 57, N-(2,3-dihydro-1H-inden-1-yl)-4-hydroxy-2-(1H-pyrazol-1-yl)pyrimidine-5-carboxamide] |
| ≤ 10 nM | O=C(N[C@@H](CO)c1ccccc1)c1cnc(-n2cccn2)nc1O [Example 123, 4-hydroxy-N-[(1R)-2-hydroxy-1-phenylethyl]-2-(1H-pyrazol-1-yl)pyrimidine-5-carboxamide] |
| 100 to 1000 nM | O=C(N[C@@H]1CONC1=O)c1cnc(-n2cccn2)nc1O [Example 83, 4-Hydroxy-N-[(4R)-3-oxoisoxazolidin-4-yl]-2-(1H-pyrazol-1-yl)pyrimidine-5-carboxamide] |
| 100 to 1000 nM | Cc1nc(-c2ncc(C(=O)NC(C)(C)C)c(O)n2)cs1 [Example 40, N-(tert-butyl)-4-hydroxy-2-(2-methyl-1,3-thiazol-4-yl)pyrimidine-5-carboxamide] |
| 1000 to 10000 nM | O=C(O)CNC(=O)c1cnc(-n2cccn2)nc1O [Example 104, N-{[4-hydroxy-2-(1H-pyrazol-1-yl)pyrimidin-5-yl]carbonyl}glycine] |
| 100 to 1000 nM | Cc1cccc(-c2ncc(C(=O)NCc3ccc(-c4ccccc4)cc3)c(O)n2)n1 [Example 15, N-(biphenyl-4-ylmethyl)-4-hydroxy-2-(6-methylpyridin-2-yl)pyrimidine-5-carboxamide] |
| ≤ 10 nM | COc1ccc(C(NC(=O)c2cnc(-c3cccnn3)nc2O)c2ccc(C#N)cc2)cc1 (single isomer, unassigned) [Example 150, N-[(4-cyanophenyl)(4-methoxyphenyl)methyl]-4-hydroxy-2-(pyridazin-3-yl)pyrimidine-5-carboxamide] |
| 100 to 1000 nM | O=C(NCc1ccc(F)cc1)c1cnc(-c2cnccn2)nc1O [Example 18, N-(4-fluorobenzyl)-4-hydroxy-2-pyrazin-2-ylpyrimidine-5-carboxamide] |
| ≤ 10 nM | CC(NC(=O)c1cnc(-n2cccn2)nc1O)c1ccc(C(F)(F)F)nc1 (single isomer, unassigned) [Example 141, 4-hydroxy-2-(1H-pyrazol-1-yl)-N-{1-[6-(trifluoromethyl)pyridin-3-yl]ethyl}pyrimidine-5-carboxamide] |
